For 38 compounds, solubility results are on record in PubChem BioAssay AID624323 (Sanford-Burnham Center for Chemical Genomics, 2012).

Converted amounts (≈) assume the structure as drawn. The source made the active and inactive calls. How the calls were made is not given here.

In the first data set the test system is aqueous buffer solubility, pH 5.0/6.2/7.4. Nature of the data set: compound solubility, pH 5.0, 6.2, 7.4 – biophysical, set 2, ADME assay (AID 624323). The following applies: at 100 µM; stronger effect = higher value.
As usually defined, the solubility is the concentration that dissolves in the medium under given conditions. On to `COc1ccc(C2CC(c3ccccc3)=NN2c2ccc(S(N)(=O)=O)cc2)cc1` (configuration not stated), for which the solubility was 0.05 µg/mL (inactive) (≈ 0.123 µM). Still for that read-out and setting: in the case of `O=C(O)c1ccc(N2C(=O)/C(=C/c3ccc(-c4ccc([N+](=O)[O-])cc4)o3)C=C2c2ccccc2)cc1` it was 0.79 µg/mL (inactive) (≈ 1.65 µM). With `C/C=C/Cn1c(SCCCc2ccccc2)nc2c1c(=O)[nH]c(=O)n2C`, the solubility is 0.39 µg/mL (inactive) (≈ 1.05 µM).

Turning to `CC(C)(C)OC(=O)NCCc1nnc(S(=O)(=O)Cc2ccc(Cl)cc2Cl)o1`, the solubility was 7.4 µg/mL (inactive) (≈ 17 µM). Regarding `CN(C)c1nc(N)nc(CSc2nnnn2-c2cccc3ccccc23)n1`, the solubility was 1 µg/mL (inactive) (≈ 2.64 µM). Turning to `Cn1cnc([N+](=O)[O-])c1Sc1ncnc2nc[nH]c12`, the solubility is > 27 µg/mL.

On to `N#C/C(=C\c1ccc([N+](=O)[O-])o1)c1nc2ccccc2[nH]1`, for which the solubility is 0.14 µg/mL (inactive) (≈ 0.5 µM). For the compound `CS(=O)(=O)c1ccc(C(=O)OCC(=O)NC23CC4CC(CC(C4)C2)C3)cc1[N+](=O)[O-]`, the solubility was 3 µg/mL (inactive) (≈ 6.87 µM). In the case of `CC(C)C(=O)NC(c1ccco1)c1ccc2cccnc2c1O` (configuration not stated), the solubility is 3.3 µg/mL (inactive) (≈ 10.6 µM).

For `C=CCn1c(SCC(=O)c2ccc(O)c(O)c2)nnc1-c1ccccc1OC`, the solubility was 24 µg/mL (≈ 60.4 µM). With `Cn1nnnc1Sc1ncnc2scc(-c3ccccc3)c12`, the solubility was 3.5 µg/mL (inactive) (≈ 10.7 µM). For `Cc1ccc(S(=O)(=O)n2c(N)nc3ccccc32)cc1`, the solubility is 2.4 µg/mL (inactive) (≈ 8.35 µM). For `Cc1cc(-c2nnc3n2CCCCC3)c(C)n1-c1ccccc1`, the solubility was > 30 µg/mL. For `CCCc1cc(C(=O)N(C2CCCCC2)C2CCCCC2)no1`, the solubility was 1.3 µg/mL (inactive) (≈ 4.08 µM).

As to `COc1cccc(-c2nc(-c3ccc(NC(=O)Cc4ccccc4OC)cc3)no2)c1`, the solubility was < 0.01 µg/mL (inactive). Consider `CC[C@H]1CN2CCc3cc(OC)c(OC)cc3[C@@H]2C[C@@H]1C[C@H]1NCCc2cc(OC)c(OC)cc21`, for which the solubility was > 55 µg/mL. In the case of `COc1ccc(OC)c(-c2nnc3n2N=C(c2ccc(OC)c(OC)c2)CS3)c1`, the solubility was 26.1 µg/mL (≈ 63.3 µM).

Consider `Cc1cc(C)nc(-n2nc(C)c(Sc3ccc(F)cc3)c2N)n1`, for which the solubility was 9.3 µg/mL (inactive) (≈ 28.2 µM). As to `CCCn1ncc(CN2CCCC(C(=O)c3cccc(OC(C)C)c3)C2)c1C` (configuration not stated), the solubility was > 38 µg/mL. As to `COc1ccc(N(C(=O)CCl)C(C(=O)NCCc2ccccc2)c2cccs2)cc1Cl` (configuration not stated), the solubility is 1.2 µg/mL (inactive) (≈ 2.51 µM). Still for that read-out and setting: in the case of `Cc1ccc(C(=O)n2c3ccccc3c3ccccc32)cc1` it was < 0.01 µg/mL (inactive); in that of `O=c1c2ccccc2[se]n1-c1ccccc1`, 5.6 µg/mL (inactive) (≈ 20.4 µM). Same read-out and setting: with `Cc1cc(C(=O)CN2C(=O)CCC2=O)c(C)n1Cc1ccccc1` the figure was > 32 µg/mL. On to `Cc1ccc(NS(=O)(=O)c2ccc3c(c2)CCC(=O)N3)cc1C`, for which the solubility is 27.1 µg/mL (≈ 82 µM). As to `Oc1cc(O)cc(/C=C/c2ccc(O)c(O)c2)c1`, the solubility was 10.1 µg/mL (≈ 41.4 µM). `c1ccc(CC2CCN(c3ncnc4sccc34)CC2)cc1`: the solubility is < 0.01 µg/mL (inactive). With `CN(C)C1=C(Cl)C(=O)N(c2ccc(Cl)c(Cl)c2)C1=O`, the solubility was < 0.01 µg/mL (inactive).

Take `O=C(c1ccccn1)N(Cc1cccs1)C1(C(=O)NC2CCCCC2)CCCCC1`: the solubility is 22.7 µg/mL (≈ 53.3 µM).

As for `CSc1nc(-c2ccc(C)cc2)nc(C(Cl)Cl)n1`, the solubility is 0.01 µg/mL (inactive) (≈ 0.0333 µM). Regarding `NC(=O)C1CCN(c2nc(-c3ccc(Br)cc3)cs2)CC1`, the solubility is 0.12 µg/mL (inactive) (≈ 0.328 µM). As for `O=[N+]([O-])c1ccc(CN2CCOCCOCCN(Cc3ccc([N+](=O)[O-])cc3)CCOCC2)cc1`, the solubility was 27.4 µg/mL (≈ 56.1 µM).

Take `Cc1ccnc(NC(=O)CCCOc2cc(=O)n(C)c3ccccc23)c1`: the solubility was 9.1 µg/mL (inactive) (≈ 25.9 µM). For `O=c1oc2c(O)c(O)cc3c(=O)oc4c(O)c(O)cc1c4c23`, the solubility is > 30 µg/mL. `CCCN(CCC)CCNC(=O)C1CCN(Cc2nc(-c3ccc(Cl)cc3)oc2C)CC1`: the solubility is > 46 µg/mL. Take `O=C1NCCCc2c1oc1ccc(O)cc21`: the solubility was > 22 µg/mL. For `CCc1nnc(NC(=O)c2ccc(NS(=O)(=O)c3ccccc3)cc2)s1`, the solubility is 0.78 µg/mL (inactive) (≈ 2.01 µM).

In the case of `CCOc1ccc(-c2nc(-c3ccncc3)no2)cc1OCC`, the solubility is 1.3 µg/mL (inactive) (≈ 4.18 µM). In the case of `Cc1cccc(-n2cnc3cc(C(=O)N4CCCCC4)ccc32)c1`, the solubility was > 32 µg/mL.

Staying with this data set, now noted: measured here: solubility at pH 5.0; at 100 µM; stronger effect = higher value.
Take `COc1ccc(C2CC(c3ccccc3)=NN2c2ccc(S(N)(=O)=O)cc2)cc1` (configuration not stated): the solubility is 0.06 µg/mL (≈ 0.147 µM).

In the case of `O=C(O)c1ccc(N2C(=O)/C(=C/c3ccc(-c4ccc([N+](=O)[O-])cc4)o3)C=C2c2ccccc2)cc1`, the solubility worked out at 0.59 µg/mL (≈ 1.23 µM). As for `C/C=C/Cn1c(SCCCc2ccccc2)nc2c1c(=O)[nH]c(=O)n2C`, the solubility was found to be 0.24 µg/mL (≈ 0.648 µM).

For the compound `CC(C)(C)OC(=O)NCCc1nnc(S(=O)(=O)Cc2ccc(Cl)cc2Cl)o1`, the solubility is 14.6 µg/mL (≈ 33.5 µM).

With `CN(C)c1nc(N)nc(CSc2nnnn2-c2cccc3ccccc23)n1`, the solubility was found to be 2.8 µg/mL (≈ 7.38 µM). For `Cn1cnc([N+](=O)[O-])c1Sc1ncnc2nc[nH]c12`, the solubility was > 27 µg/mL. On to `N#C/C(=C\c1ccc([N+](=O)[O-])o1)c1nc2ccccc2[nH]1`, for which the solubility was found to be 0.08 µg/mL (≈ 0.285 µM). `CS(=O)(=O)c1ccc(C(=O)OCC(=O)NC23CC4CC(CC(C4)C2)C3)cc1[N+](=O)[O-]` displayed a solubility of 1.8 µg/mL (≈ 4.12 µM).

In turn, `CC(C)C(=O)NC(c1ccco1)c1ccc2cccnc2c1O` (configuration not stated) displayed a solubility of 2.8 µg/mL (≈ 9.02 µM). In the case of `C=CCn1c(SCC(=O)c2ccc(O)c(O)c2)nnc1-c1ccccc1OC`, the solubility turned out to be 4.5 µg/mL (≈ 11.3 µM). `Cn1nnnc1Sc1ncnc2scc(-c3ccccc3)c12` returned a solubility of 2.9 µg/mL (≈ 8.88 µM). On to `Cc1ccc(S(=O)(=O)n2c(N)nc3ccccc32)cc1`, for which the solubility turned out to be 2.3 µg/mL (≈ 8 µM). On the same count and under the same terms, in the case of `Cc1cc(-c2nnc3n2CCCCC3)c(C)n1-c1ccccc1` it was > 30 µg/mL; in that of `CCCc1cc(C(=O)N(C2CCCCC2)C2CCCCC2)no1`, 2.1 µg/mL (≈ 6.59 µM); in that of `COc1cccc(-c2nc(-c3ccc(NC(=O)Cc4ccccc4OC)cc3)no2)c1`, 0.09 µg/mL (≈ 0.217 µM). Consider `CC[C@H]1CN2CCc3cc(OC)c(OC)cc3[C@@H]2C[C@@H]1C[C@H]1NCCc2cc(OC)c(OC)cc21`, for which the solubility is > 55 µg/mL. On the same count and under the same terms, with `COc1ccc(OC)c(-c2nnc3n2N=C(c2ccc(OC)c(OC)c2)CS3)c1` the figure was 28.2 µg/mL (≈ 68.4 µM); with `Cc1cc(C)nc(-n2nc(C)c(Sc3ccc(F)cc3)c2N)n1`, 5.6 µg/mL (≈ 17 µM). As to `CCCn1ncc(CN2CCCC(C(=O)c3cccc(OC(C)C)c3)C2)c1C` (configuration not stated), the solubility is > 38 µg/mL.
